Among the test systems are 786-0 renal; ACHN renal; HOP-62 NSCLC; KM12 colon; LOX IMVI melanoma; PC-3 prostate; RPMI-8226 leukemia; SN12C renal; SW-620 colon; UACC-62 melanoma.
Assay in all cases: growth of human tumour cells (NCI), 48 h

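Protocol summary: plate cells (96-well), add compound at 5 concentrations, incubate 48 h, interpolate endpoints linearly. GI50 is the concentration that inhibits growth by half. TGI: total growth inhibition.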

`O=C1NC(=O)C(c2c[nH]c3ccccc23)=C1c1c[nH]c2ccccc12`: the GI50 is greater than 19.1 µM in the assay on 786-0 renal; 9.25 µM with ACHN renal; 16.5 µM with HOP-62 NSCLC; 9.3 µM in the assay on KM12 colon; 5.31 µM in the assay on LOX IMVI melanoma; 10.2 µM with PC-3 prostate. Moreover, the GI50 is 9.48 µM in the assay with RPMI-8226 leukemia, 16.3 µM with SN12C renal, 13.3 µM in the assay with SW-620 colon and 12.1 µM with UACC-62 melanoma. Also, the TGI with 786-0 renal, with ACHN renal, in the assay on HOP-62 NSCLC, in the assay with KM12 colon, in the assay on LOX IMVI melanoma and with PC-3 prostate was greater than 25 µM throughout. Further, the TGI in the assay with RPMI-8226 leukemia, in the assay with SN12C renal, with SW-620 colon and with UACC-62 melanoma was greater than 25 µM in each case.
Turning to `CC(C)=CC[C@@H]1CC2(CC=C(C)C)C(=O)C(OC3(C(=O)c4ccccc4)C(=O)C4(CC=C(C)C)C[C@@H](CC=C(C)C)C(C)(C)C(CC=C(C)C)(C4=O)C3=O)(C(=O)c3ccccc3)C(=O)C(CC=C(C)C)(C2=O)C1(C)C` (stereo partly specified), the GI50 in the assay on 786-0 renal is 0.963 µM; in the assay on ACHN renal, 1.48 µM; in the assay with HOP-62 NSCLC, 1.36 µM; in the assay with KM12 colon, 1.65 µM; in the assay on LOX IMVI melanoma it was 1.23 µM; in the assay on PC-3 prostate, 1.28 µM. Moreover, the GI50 was 1.05 µM in the assay with RPMI-8226 leukemia, 1.54 µM in the assay with SN12C renal, 1.92 µM in the assay on SW-620 colon and 0.878 µM in the assay on UACC-62 melanoma. For the same compound, the TGI in the assay with 786-0 renal stood at 2.61 µM; in the assay on ACHN renal, 5.99 µM; in the assay on HOP-62 NSCLC, 4 µM; in the assay with KM12 colon, 6.13 µM; in the assay with LOX IMVI melanoma, 3.24 µM; in the assay on PC-3 prostate, 4.36 µM. For the same compound, the TGI with RPMI-8226 leukemia came out at 2.7 µM; in the assay on SN12C renal, 5.67 µM; in the assay with SW-620 colon, 8.29 µM; in the assay on UACC-62 melanoma it was 1.98 µM.
`CN1CCN(Cc2ccc(NC(=O)c3cncc(C#Cc4cnc(N)c5ncccc45)c3)cc2C(F)(F)F)CC1`: the GI50 in the assay with 786-0 renal was 1.12 µM; in the assay on ACHN renal, 0.177 µM; with HOP-62 NSCLC it was 0.448 µM; in the assay with KM12 colon it was less than 0.0146 µM; in the assay on LOX IMVI melanoma it was 0.216 µM; in the assay with PC-3 prostate, 0.584 µM. Besides, the GI50 was 0.401 µM in the assay with RPMI-8226 leukemia, 0.307 µM in the assay with SN12C renal, 0.247 µM in the assay with SW-620 colon and 0.341 µM with UACC-62 melanoma. In addition, the TGI with 786-0 renal was found to be 2.52 µM; in the assay with ACHN renal it was 1.12 µM; with HOP-62 NSCLC, 5.78 µM; in the assay on KM12 colon, 4.03 µM; in the assay with LOX IMVI melanoma it was 1.33 µM; in the assay on PC-3 prostate, 16.9 µM. For the same compound, the TGI in the assay with RPMI-8226 leukemia was determined as 8.2 µM; in the assay with SN12C renal, 1.5 µM; in the assay on SW-620 colon it was 1.36 µM; in the assay on UACC-62 melanoma, 1.93 µM.
With `O=c1nc2n(-c3cccc(Cl)c3)c3ccc([N+](=O)[O-])cc3cc-2c(=O)[nH]1`, the GI50 with 786-0 renal was 4.49 µM; in the assay on ACHN renal, 5.32 µM; with HOP-62 NSCLC it was 2.88 µM; with KM12 colon, 3.13 µM; in the assay with LOX IMVI melanoma, 1.93 µM; in the assay with PC-3 prostate, 6.01 µM. For the same compound, the GI50 in the assay with RPMI-8226 leukemia was 3.13 µM; with SN12C renal it was 4.55 µM; in the assay on SW-620 colon, 2.3 µM; with UACC-62 melanoma, 3.54 µM. The TGI in the assay on 786-0 renal turned out to be 9.5 µM; in the assay with ACHN renal it was 16 µM; in the assay on HOP-62 NSCLC it was 9.2 µM; in the assay on KM12 colon, 7.57 µM; in the assay on LOX IMVI melanoma it was 9.52 µM; in the assay with PC-3 prostate, 15.3 µM. For the same compound, the TGI was 10.8 µM in the assay with RPMI-8226 leukemia, 10.6 µM in the assay with SN12C renal, greater than 25 µM with SW-620 colon and 8.38 µM in the assay on UACC-62 melanoma.
For the compound `COc1ccc(C2=NN(C(N)=S)C(c3ccc4c(c3)OCO4)C2)cc1` (stereo unspecified), the GI50 in the assay with 786-0 renal is 3.8 µM; with ACHN renal it was 3.58 µM; with HOP-62 NSCLC, 3.56 µM; in the assay on KM12 colon, 2.27 µM; in the assay on LOX IMVI melanoma it was 2.19 µM; with PC-3 prostate, 4.33 µM. In addition, the GI50 is 1.88 µM in the assay with RPMI-8226 leukemia, 3.37 µM in the assay with SN12C renal, 2.29 µM with SW-620 colon and 3.79 µM in the assay with UACC-62 melanoma. For the same compound, the TGI is greater than 100 µM in the assay on 786-0 renal; greater than 100 µM in the assay with ACHN renal; greater than 100 µM with HOP-62 NSCLC; 5.19 µM in the assay on KM12 colon; 4.99 µM with LOX IMVI melanoma; greater than 100 µM in the assay with PC-3 prostate. Also, the TGI is 6.33 µM in the assay on RPMI-8226 leukemia, greater than 100 µM in the assay with SN12C renal, 5.92 µM in the assay with SW-620 colon and 21.1 µM with UACC-62 melanoma.
Consider `C=CCc1cccc(C=O)c1O`, for which the GI50 in the assay on 786-0 renal was greater than 100 µM; with ACHN renal, greater than 100 µM; in the assay with HOP-62 NSCLC, greater than 100 µM; in the assay with LOX IMVI melanoma it was 17.3 µM; in the assay with PC-3 prostate, 5.86 µM; in the assay on RPMI-8226 leukemia it was 7.72 µM. The GI50 was 20.8 µM in the assay with SN12C renal, 50.6 µM in the assay on SW-620 colon and 35.9 µM in the assay on UACC-62 melanoma. The TGI in the assay on 786-0 renal, in the assay with ACHN renal, in the assay on HOP-62 NSCLC, with LOX IMVI melanoma, in the assay on PC-3 prostate and in the assay with RPMI-8226 leukemia was greater than 100 µM in each case. The TGI with SN12C renal, in the assay with SW-620 colon and in the assay with UACC-62 melanoma was greater than 100 µM throughout.
For `CCN1CCN(CCC(=O)Nc2cccc(-n3cc(-c4ccncc4)c(-c4ccc(Cl)c(OC)c4)n3)c2)CC1`, the GI50 was 0.701 µM in the assay with 786-0 renal; 0.782 µM with ACHN renal; 0.697 µM with HOP-62 NSCLC; 0.394 µM in the assay on KM12 colon; 0.445 µM in the assay on LOX IMVI melanoma; 0.448 µM in the assay on PC-3 prostate. The results for the GI50 with SN12C renal, in the assay with SW-620 colon and with UACC-62 melanoma were 0.623 µM, 0.338 µM and 0.757 µM, respectively. In addition, the TGI came to 2.2 µM with 786-0 renal; 2.71 µM in the assay on ACHN renal; 2.43 µM with HOP-62 NSCLC; 1.68 µM in the assay on KM12 colon; 1.66 µM in the assay on LOX IMVI melanoma; 2.02 µM with PC-3 prostate. Also, the TGI in the assay with SN12C renal was 2.88 µM; in the assay with SW-620 colon, 1.5 µM; with UACC-62 melanoma it was 2.34 µM.

Values taken from PubChem BioAssay (NCI).
